For 26 molecules, IC50 results are on record in patent US10233182B2, “Substituted spirocyclic inhibitors of autotaxin” (X-Rx, Inc., priority 2014, dated 2019).

Molecules are shown by their SMILES.

The target of the assay is Autotaxin (Homo sapiens (Human), UniProt Q13822). Put plainly: Autotaxin LPC Cascade Assay. As to conditions: Autotaxin 5 nM, LPC 100 μM, choline oxidase/HRP/Ampliflu Red fluorescence read-out, 2% DMSO, RT; read-out: IC50 ATX Activity. Type of assay: biochemical. The method in brief:
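Choline liberated from LPC by autotaxin during 1 h, after a 10-min RT compound preincubation, was converted through choline oxidase/HRP to a fluorescent Ampliflu Red product.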
On to `Cc1cccc(C(=O)N[C@@H](C(=O)N2CCC3(CC2)C(=O)N(C)CN3c2ccc(C#N)cc2)C(C)C)c1F` [Example 179, (R)—N-(1-(1-(4-Cyanophenyl)-3-methyl-4-oxo-1,3,8-triazaspiro[4.5]decan-8-yl)-3-methyl-1-oxobutan-2-yl)-2-fluoro-3-methylbenzamide], for which the half-inhibitory concentration (IC50) is below 0.5 µM.
As for `CC(C)[C@@H](NC(=O)c1cc(C(F)(F)F)ccc1F)C(=O)N1CCC2(CC1)C(=O)N(C)C(=O)N2c1ccc(Cl)cc1` [Example 181, (R)—N-(1-(1-(4-Chlorophenyl)-3-methyl-2,4-dioxo-1,3,8-triazaspiro[4.5]decan-8-yl)-3-methyl-1-oxobutan-2-yl)-2-fluoro-5-(trifluoromethyl)benzamide], the concentration for half-maximal inhibition (IC50) is below 0.5 µM.
With `CC(C)[C@@H](NC(=O)c1cc(C(F)(F)F)ccc1F)C(=O)N1CCC2(CC1)C(=O)N(C)C(=O)N2c1ccc(F)cc1` [Example 182, (R)-2-Fluoro-N-(1-(1-(4-fluorophenyl)-3-methyl-2,4-dioxo-1,3,8-triazaspiro[4.5]decan-8-yl)-3-methyl-1-oxobutan-2-yl)-5-(trifluoromethyl)benzamide] the figure was below 0.5 µM; with `CC(C)[C@@H](NC(=O)c1cc(C(F)(F)F)ccc1F)C(=O)N1CCC2(CC1)C(=O)N(C)C(=O)N2c1ccc(Cl)c(Cl)c1` [Example 183, (R)—N-(1-(1-(3,4-Dichlorophenyl)-3-methyl-2,4-dioxo-1,3,8-triazaspiro[4.5]decan-8-yl)-3-methyl-1-oxobutan-2-yl)-2-fluoro-5-(trifluoromethyl)benzamide], below 0.5 µM; with `Cc1ccc(N2C(=O)N(C)C(=O)C23CCN(C(=O)[C@H](NC(=O)c2cc(C(F)(F)F)ccc2F)C(C)C)CC3)cc1` [Example 184, (R)-2-Fluoro-N-(3-methyl-1-(3-methyl-2,4-dioxo-1-p-tolyl-1,3,8-triazaspiro[4.5]decan-8-yl)-1-oxobutan-2-yl)-5-(trifluoromethyl)benzamide], below 0.5 µM.
The value for `CC(C)[C@@H](NC(=O)c1cc(C(F)(F)F)ccc1F)C(=O)N1CCC2(CC1)C(=O)N(C)C(=O)N2c1ccc2[nH]ccc2c1` [Example 185, (R)—N-(1-(1-(1H-Indol-5-yl)-3-methyl-2,4-dioxo-1,3,8-triazaspiro[4.5]decan-8-yl)-3-methyl-1-oxobutan-2-yl)-2-fluoro-5-(trifluoromethyl)benzamide] was below 0.5 µM.
With `CC(C)[C@@H](NC(=O)c1cc(C(F)(F)F)ccc1F)C(=O)N1CCC2(CC1)C(=O)N(C)C(=O)N2c1ccc(C(F)(F)F)cc1` [Example 186, (R)-2-Fluoro-N-(3-methy-1-(3-methyl-2,4-dioxo-1-(4-(trifluoromethyl)phenyl)-1,3,8-triazaspiro[4.5]decan-8-yl)-1-oxobutan-2-yl)-5-(trifluoromethyl)benzamide] the figure was below 0.5 µM.
Regarding `CC(C)[C@@H](NC(=O)c1cc(C(F)(F)F)ccc1F)C(=O)N1CCC2(CC1)C(=O)N(C)C(=O)N2c1cccc(Cl)c1` [Example 187, (R)—N-(1-(1-(3-Chlorophenyl)-3-methyl-2,4-dioxo-1,3,8-triazaspiro[4.5]decan-8-yl)-3-methyl-1-oxobutan-2-yl)-2-fluoro-5-(trifluoromethyl)benzamide], the 50% inhibitory concentration (IC50) is below 0.5 µM.
The value for `CC(C)[C@@H](NC(=O)c1cc(C(F)(F)F)ccc1F)C(=O)N1CCC2(CC1)C(=O)N(C)C(=O)N2c1ccccn1` [Example 188, (R)-2-Fluoro-N-(3-methyl-1-(3-methyl-2,4-dioxo-1-(pyridin-2-yl)-1,3,8-triaza-spiro[4.5]decan-8-yl)-1-oxobutan-2-yl)-5-(trifluoromethyl)benzamide] was 0.5 to 1 µM; that for `CC(C)[C@@H](NC(=O)c1cc(C(F)(F)F)ccc1F)C(=O)N1CCC2(CC1)C(=O)N(C)C(=O)N2c1cccnc1` [Example 189, (R)-2-Fluoro-N-(3-methyl-1-(3-methyl-2,4-dioxo-1-(pyridin-3-yl)-1,3,8-triaza-spiro[4.5]decan-8-yl)-1-oxobutan-2-yl)-5-(trifluoromethyl)benzamide] was 0.5 to 1 µM; that for `[2H]c1ccc(N2C(=O)N(C)C(=O)C23CCN(C(=O)[C@H](NC(=O)c2cc(C(F)(F)F)ccc2F)C(C)C)CC3)cc1` [Example 190] was below 0.5 µM.
With `CC(C)[C@@H](NC(=O)c1cc(C(F)(F)F)ccc1F)C(=O)N1CCC2(CC1)C(=O)N(C)C(=O)N2c1ccc2c(c1)OCO2` [Example 191, (R)—N-(1-(1-(Benzo[d][1,3]dioxol-5-yl)-3-methyl-2,4-dioxo-1,3,8-triazaspiro[4.5]decan-8-yl)-3-methyl-1-oxobutan-2-yl)-2-fluoro-5-(trifluoromethyl)benzamide], the IC50 is below 0.5 µM.
The value for `Cc1cccc(C(=O)N[C@@H](C(=O)N2CCC3(CC2)C(=O)N(C)CN3c2cccc(Cl)c2)C(C)C)c1` [Example 192, (R)—N-(1-(1-(3-Chlorophenyl)-3-methyl-4-oxo-1,3,8-triazaspiro[4.5]decan-8-yl)-3-methyl-1-oxobutan-2-yl)-3-methylbenzamide] was below 0.5 µM.
With `Cc1cccc(C(=O)N[C@@H](C(=O)N2CCC3(CC2)C(=O)N(C)CN3c2ccc(Cl)cc2)C(C)C)c1` [Example 193, (R)—N-(1-(1-(4-Chlorophenyl)-3-methyl-4-oxo-1,3,8-triazaspiro[4.5]decan-8-yl)-3-methyl-1-oxobutan-2-yl)-3-methylbenzamide] the figure was below 0.5 µM; with `Cc1cccc(C(=O)N[C@@H](C(=O)N2CCC3(CC2)C(=O)N(C)CN3c2cccc(Br)c2)C(C)C)c1` [Example 194, (R)—N-(1-(1-(3-Bromophenyl)-3-methyl-4-oxo-1,3,8-triazaspiro[4.5]decan-8-yl)-3-methyl-1-oxobutan-2-yl)-3-methylbenzamide], below 0.5 µM; with `Cc1cccc(C(=O)N[C@@H](C(=O)N2CCC3(CC2)C(=O)N(C)CN3c2cccnc2)C(C)C)c1` [Example 195, (R)-3-Methyl-N-(3-methyl-1-(3-methyl-4-oxo-1-(pyridin-3-yl)-1,3,8-triazaspiro[4.5]decan-8-yl)-1-oxobutan-2-yl)benzamide], at least 1 µM.
The value for `Cc1cccc(C(=O)N[C@@H](C(=O)N2CCC3(CC2)C(=O)N(C)CN3c2ccccc2Cl)C(C)C)c1` [Example 196, (R)—N-(1-(1-(2-Chlorophenyl)-3-methyl-4-oxo-1,3,8-triazaspiro[4.5]decan-8-yl)-3-methyl-1-oxobutan-2-yl)-3-methylbenzamide] was below 0.5 µM; that for `COc1ccc(N2CN(C)C(=O)C23CCN(C(=O)[C@H](NC(=O)c2cccc(C)c2)C(C)C)CC3)cc1` [Example 197, (R)—N-(1-(1-(4-Methoxyphenyl)-3-methyl-4-oxo-1,3,8-triazaspiro[4.5]decan-8-yl)-3-methyl-1-oxobutan-2-yl)-3-methylbenzamide] was below 0.5 µM; that for `COc1cccc(N2CN(C)C(=O)C23CCN(C(=O)[C@H](NC(=O)c2cccc(C)c2)C(C)C)CC3)c1` [Example 198, (R)—N-(1-(1-(3-Methoxyphenyl)-3-methyl-4-oxo-1,3,8-triazaspiro[4.5]decan-8-yl)-3-methyl-1-oxobutan-2-yl)-3-methylbenzamide] was below 0.5 µM.
As for `Cc1cccc(C(=O)N[C@@H](C(=O)N2CCC3(CC2)C(=O)N(C)CN3c2ccc(Br)cc2)C(C)C)c1` [Example 199, (R)—N-(1-(1-(4-Bromophenyl)-3-methyl-4-oxo-1,3,8-triazaspiro[4.5]decan-8-yl)-3-methyl-1-oxobutan-2-yl)-3-methylbenzamide], the concentration for half-maximal inhibition (IC50) was below 0.5 µM.
With `CCc1ccc(F)c(C(=O)N[C@@H](C(=O)N2CCC3(CC2)C(=O)N(C)CN3c2ccc(S(C)(=O)=O)cc2)C(C)C)c1` [Example 200, (R)-5-Ethyl-2-fluoro-N-(3-methyl-1-(3-methyl-1-(4-(methylsulfonyl)phenyl)-4-oxo-1,3,8-triazaspiro[4.5]decan-8-yl)-1-oxobutan-2-yl)benzamide] the figure was below 0.5 µM; with `CCc1ccc(F)c(C(=O)N[C@@H](C(=O)N2CCC3(CC2)C(=O)N(C)CN3c2ccc(=O)n(C)c2)C(C)C)c1` [Example 201, (R)-5-Ethyl-2-fluoro-N-(3-methyl-1-(3-methyl-1-(1-methyl-6-oxo-1,6-dihydropyridin-3-yl)-4-oxo-1,3,8-triazaspiro[4.5]decan-8-yl)-1-oxobutan-2-yl)benzamide], below 0.5 µM; with `CCc1ccc(F)c(C(=O)N[C@@H](C(=O)N2CCC3(CC2)C(=O)N(C)CN3c2ccc(OC)cc2)C(C)C)c1` [Example 202, (R)-5-Ethyl-2-fluoro-N-(1-(1-(4-methoxyphenyl)-3-methyl-4-oxo-1,3,8-triazaspiro[4.5]decan-8-yl)-3-methyl-1-oxobutan-2-yl)benzamide], below 0.5 µM.
The value for `CCc1ccc(F)c(C(=O)N[C@@H](C(=O)N2CCC3(CC2)C(=O)N(C)CN3c2ccc3oc(=O)n(C)c3c2)C(C)C)c1` [Example 203, (R)-5-Ethyl-2-fluoro-N-(3-methyl-1-(3-methyl-1-(3-methyl-2-oxo-2,3-dihydrobenzo[d]oxazol-5-yl)-4-oxo-1,3,8-triazaspiro[4.5]decan-8-yl)-1-oxobutan-2-yl)benzamide] was below 0.5 µM; that for `CC(C)[C@@H](NC(=O)c1cc(C(F)(F)F)ccc1F)C(=O)N1CCC2(CC1)C(=O)N(C)CN2c1ccc(=O)n(C)c1` [Example 204, (R)-2-Fluoro-N-(3-methyl-1-(3-methyl-1-(1-methyl-6-oxo-1,6-dihydropyridin-3-yl)-4-oxo-1,3,8-triazaspiro[4.5]decan-8-yl)-1-oxobutan-2-yl)-5-(trifluoromethyl)benzamide] was below 0.5 µM; that for `CC(C)[C@@H](NC(=O)c1cc(C(F)(F)F)ccc1F)C(=O)N1CCC2(CC1)C(=O)N(C)CN2c1ccc(S(C)(=O)=O)cc1` [Example 205, (R)-2-Fluoro-N-(3-methyl-1-(3-methyl-1-(4-(methylsulfonyl)phenyl)-4-oxo-1,3,8-triazaspiro[4.5]decan-8-yl)-1-oxobutan-2-yl)-5-(trifluoromethyl)benzamide] was below 0.5 µM.

What is called IC50 is the concentration at which inhibition is half-maximal.
